Tests used:
[1] = Plasma stability (human plasma); details: for Formation of EFdA at 30 min: human plasma; for half-life at 2 µM: human, pH 7.4
Protocol: The pooled frozen plasma was thawed in a water bath at 37° C. prior to experiment. Plasma was centrifuged at 4000 rpm for 5 min and the clots were removed if any. The pH will be adjusted to 7.4±0.1 if required.
Preparation of test compounds and positive control (propantheline bromide): 1 mM intermediate solution was prepared by diluting 10 μL of the stock solution with 90 μL MeOH; 1 mM intermediate of positive control Propantheline was prepared by diluting 10 μL of the stock solution with 90 μL ultrapure water. 100 μM dosing solution was prepared by diluting 20 μL of the intermediate solution (1 mM) with 180 μL MeOH. 98 μL of blank plasma was spiked with 2 μL of dosing solution (100 μM) to achieve 2 μM of the final concentration in duplicate and samples were incubated at 37° C. in a water bath. […] Centrifuged sample plates at 4,000 rpm for 10 min. An aliquot of supernatant (100 μL) was transferred from each well to another plates.

[2] = Plasma exposures following intramuscular administration of prodrugs to cynomolgus monkeys; details: single IM injection, 10 mg/kg
[3] = Liver S9 stability (human liver S9); format: in vitro ADME; details: for half-life at 1 µM: human liver S9, 37° C.; for Formation of EFdA at 30 min: human liver S9, 30 min
Protocol: Add 600 μL/well stop solution (cold in 4° C., including 100 ng/mL Tolbutamide/100 ng/mL Labetalol) to terminate the TO plate, then put it on ice. Dispense 840 μL/well S9 solution to 96-well plate as reservoir according to plate map. Then add 100 μL/well to every plate by Apricot. Incubate S9 solution and compound at 37° C. for about 10 min except NCF60 and TO. After adding S9 solution and 98μ LPB buffer to NCF60, incubate at 37° C. without pre-warming, start timer 1. After 60 min, add 600 μL/well stop solution to terminate the reaction. After pre-warming, dispense 760 μL/well cofactor solution to 96-well plate as reservoir according to plate map. Then add 98 μL/well to every plate by Apricot to start reaction. Incubate at 37° C., start timer 2, Add 600 μL/well stop solution (cold in 4° C., including 100 ng/mL Tolbutamide and Labetalol) to terminate the reaction. Samples are centrifuged at 4000 rpm for 20 min. While centrifuging, load 8× new 96-well plate with 300 μL HPLC water, then transfer 100 μL supernatant, mix with water for LC/MS/MS, transferred to Bioanalytical Services for LC-MS/MS analysis. Use equation of first order kinetics [NT]1/2 and CL: Equation of first order kinetics: [formula] [formula] [formula] [formula]

Structure (SMILES) | Formation of EFdA at 30 min [1] | half-life at 2 µM ([1]; pooled plasma) | Release of EFdA in vivo and prodrug level in the systemic circulation [2] | half-life at 1 µM [3] | Formation of EFdA at 30 min [3] | half-life at 2 µM ([1]; plasma)
C#C[C@]1(COC(=O)OCCC23CC4CC(CC(C4)C2)C3)O[C@@H](n2cnc3c(N)nc(F)nc32)C[C@@H]1O [Compound 7, ((2R, 3S, 5R)-5-(6-amino-2-fluoro-9H-purin-9-yl)-2-ethynyl-3-hydroxy-tetrahydrofuran-2-yl)methyl 2-(1-adamantyl)ethyl carbonate] | Yes | < 50 min | efficiently release EFdA in vivo with minimal to low levels of prodrug detected in the systemic circulation | < 50 min | Yes | 
C#C[C@]1(COC(=O)OCCCC23CC4CC(CC(C4)C2)C3)O[C@@H](n2cnc3c(N)nc(F)nc32)C[C@@H]1O [Compound 10, ((2R,3S,5R)-5-(6-amino-2-fluoro-9H-purin-9-yl)-2-ethynyl-3-hydroxy-tetrahydrofuran-2-yl)methyl 3-(1-adamantyl)propyl carbonate] | Yes | < 50 min | efficiently release EFdA in vivo with minimal to low levels of prodrug detected in the systemic circulation | < 50 min | Yes | 
C#C[C@]1(COC(=O)OCCCCC23CC4CC(CC(C4)C2)C3)O[C@@H](n2cnc3c(N)nc(F)nc32)C[C@@H]1O [Compound 12, ((2R,3S,5R)-5-(6-amino-2-fluoro-9H-purin-9-yl)-2-ethynyl-3-hydroxy-tetrahydrofuran-2-yl)methyl 4-(1-adamantyl)butyl carbonate] | Yes | < 50 min | efficiently release EFdA in vivo with minimal to low levels of prodrug detected in the systemic circulation | < 50 min | Yes | 
C#C[C@]1(COC(=O)OCCCC23CC4CC(CC(C4)C2)C3)O[C@@H](n2cnc3c(N)nc(F)nc32)C[C@@H]1OC(=O)OCCCC12CC3CC(CC(C3)C1)C2 [Compound 22, ((2R,3S,5R)-3-[3-(1-adamantyl)propoxycarbonyloxy]-5-(6-amino-2-fluoro-9H-purin-9-yl)-2-ethynyl-tetrahydrofuran-2-yl)methyl 3-(1-adamantyl)propyl carbonate] | No | > 200 min |  | 50 to 200 min | Yes | 
C#C[C@]1(COC(=O)OCC23CC4CC(CC(C4)C2)C3)O[C@@H](n2cnc3c(N)nc(F)nc32)C[C@@H]1OC(=O)OCC12CC3CC(CC(C3)C1)C2 [Compound 23, ((2R,3S,5R)-3-(1-adamantylmethoxycarbonyloxy)-5-(6-amino-2-fluoro-9H-purin-9-yl)-2-ethynyl-tetrahydrofuran-2-yl)methyl 1-adamantylmethyl carbonate] | No | > 200 min |  | < 50 min | Yes | 
C#C[C@]1(COC(=O)OCC23CC4CC(CC(C4)C2)C3)O[C@@H](n2cnc3c(N)nc(F)nc32)C[C@@H]1OC(=O)OCC [Compound 24, ((2R,3S,5R)-2-(1-adamantylmethoxycarbonyloxymethyl)-5-(6-amino-2-fluoro-9H-purin-9-yl)-2-ethynyl-tetrahydrofuran-3-yl) ethyl carbonate] | Yes |  |  | < 50 min | Yes | 50 to 200 min
C#C[C@]1(COC(=O)OCCCCC23CC4CC(CC(C4)C2)C3)O[C@@H](n2cnc3c(N)nc(F)nc32)C[C@@H]1OC(=O)OCC [Compound 25, ((2R,3S,5R)-2-[4-(1-adamantyl)butoxycarbonyloxymethyl]-5-(6-amino-2-fluoro-9H-purin-9-yl)-2-ethynyl-tetrahydrofuran-3-yl) ethyl carbonate] | Yes |  |  | < 50 min | Yes | 50 to 200 min
C#C[C@]1(COC(=O)OCCCC23CC4CC(CC(C4)C2)C3)O[C@@H](n2cnc3c(N)nc(F)nc32)C[C@@H]1OC(=O)OCC [Compound 26, ((2R,3S,5R)-2-[3-(1-adamantyl)propoxycarbonyloxymethyl]-5-(6-amino-2-fluoro-9H-purin-9-yl)-2-ethynyl-tetrahydrofuran-3-yl) ethyl carbonate] | Yes |  |  | < 50 min | Yes | < 50 min
C#C[C@]1(COC(=O)OC23CC4CC(CC(C4)C2)C3)O[C@@H](n2cnc3c(N)nc(F)nc32)C[C@@H]1OC(=O)OCC [Compound 27, 1-adamantyl ((2R,3S,5R)-5-(6-amino-2-fluoro-purin-9-yl)-3-ethoxycarbonyloxy-2-ethynyl-tetrahydrofuran-2-yl)methyl carbonate] | No |  |  | < 50 min | Yes | > 200 min
C#C[C@]1(COC(=O)OC23CC4CC(CC(C4)C2)C3)O[C@@H](n2cnc3c(N)nc(F)nc32)C[C@@H]1OC(=O)C(C)C [Compound 28, ((2R,3S,5R)-2-(1-adamantyloxycarbonyloxymethyl)-5-(6-amino-2-fluoro-9H-purin-9-yl)-2-ethynyl-tetrahydrofuran-3-yl) 2-methylpropanoate] | No | > 200 min |  | < 50 min | Yes | 
